{
  "source": "patent US8946301B2",
  "about": "“Targeting of T-lymphocytes to treat amyotrophic lateral sclerosis” (ALS Therapy Development Institute, priority 2011, dated 2015)",
  "origin": "cited, not measured here",
  "key": {"[1]": {"system": "peripheral blood mononuclear cells (lymphocytes and monocytes)", "details": "published reports; cited from earlier work"}, "[2]": {"system": "patients with ALS", "details": "Borras-Blasco et al. 1998; cited from earlier work"}, "[3]": {"details": "cited from earlier work"}},
  "note": "Where a name gives a salt, the structure may show the parent alone.",
  "data": [
    {"compound": "NC(CO)(CO)CCc1ccc(Sc2cccc(OCc3ccccc3)c2)cc1Cl", "note": "[KRP-203, 2-amino-2-[2-[2-chloro-4-(3-phenylmethoxyphenyl)sulfanylphenyl]ethyl]propane-1,3-diol]", "values": [
      {"measurement": "lymphocyte homing into peripheral lymph nodes", "setting": "[1]", "value": "enhanced"},
      {"measurement": "number of granulocytes", "setting": "[1]", "value": "not"},
      {"measurement": "number of peripheral blood mononuclear cells (lymphocytes and monocytes)", "setting": "[1]", "value": "reduce the number"}
    ]},
    {"compound": "Nc1nc2ccc(OC(F)(F)F)cc2s1", "note": "[Riluzole™]", "values": [
      {"measurement": "muscular strength of ALS patients", "setting": "[2]", "value": "does not appear to provide an improvement of muscular strength"}
    ]},
    {"compound": "CCCCCCCCc1ccc(CCC(N)(CO)CO)cc1", "note": "[Fingolimod hydrochloride]", "values": [
      {"measurement": "solubility in 0.9% saline", "setting": "[3]; 0.9% saline", "value": "soluble"},
      {"measurement": "solubility in aqueous buffers at or above pH 3.0", "setting": "[3]; aqueous buffers, pH at or above 3.0", "value": "very slightly soluble or practically insoluble"},
      {"measurement": "solubility in aqueous buffers at or below pH 2.0", "setting": "[3]; aqueous buffers, pH at or below 2.0", "value": "soluble"},
      {"measurement": "solubility in water", "setting": "[3]; water", "value": "> 10", "unit": "%"}
    ]}
  ]
}
